Experimental data reported in patent US7678918B2, “Intermediates for imidazonaphthyridines” (3M Innovative Properties Company, priority 1997, dated 2010).

Key:
IFN = experiment: Cytokine Induction in Human Cells: interferon (IFN) secreted by PBMCs, A549/encephalomyocarditis bioassay; assay type: cell-based; conditions: 18 to 24 hours
Source text: (§1) An in vitro human blood cell system was used to assess cytokine induction by compounds of the invention. Activity is based on the measurement of interferon and tumor necrosis factor (ℑ) (IFN and TNF, respectively) secreted into culture media as described by Testerman et. al. In “Cytokine Induction by the Immunomodulators Imiquimod and S-27609”, Journal of Leukocyte Biology, 58, 365-372 (September, 1995). Blood Cell Preparation for Culture
(§2) Whole blood is collected by venipuncture into EDTA vacutainer tubes from healthy human donors. Peripheral blood mononuclear cells (PBMCs) are separated from whole blood by Histopaque®-1077 (Sigma Chemicals, St. Louis, Mo.) density gradient centrifugation. The PBMCs are suspended at 1.5-2×10^6 cells/mL in RPMI 1640 medium containing 10% fetal bovine serum, 2 mM L-glutamine and 1% penicillin/streptomycin solution (RPMI complete). 1 mL portions of PBMC suspension are added to 24 well flat bottom sterile tissue culture plates.
(§3) The compounds are solubilized in dimethyl sulfoxide (DMSO). The DMSO concentration should not exceed a final concentration of 1% for addition to the culture wells. The compounds are generally tested in a concentration range of from 0.1 to 100 μM.
(§4) The solution of test compound is added to the wells containing 1 mL of PBMCs in media. The plates are covered with plastic lids, mixed gently and then incubated for 18 to 24 hours at 37° C. with a 5% carbon dioxide atmosphere.
(§5) Following incubation the plates are centrifuged for 5-10 minutes at 1000 rpm (˜200×g) at 4° C. The cell culture supernatant is removed with a sterile polypropylene pipet and transferred to a 2 mL sterile cryotube. Samples are maintained at −70° C. until analysis.
Interferon is determined by bioassay using A549 human lung carcinoma cells challenged with encephalomyocarditis. The details of the bioassay method have been described by G. L. Brennan and L. H. Kronenberg in “Automated Bioassay of Interferons in Micro-test Plates”, Biotechniques, June/July 78, 1983, incorporated herein by reference. Briefly stated the method is as follows: A549 cells are incubated with samples and standard interferon dilutions at 37° C. for 24 hours. The incubated cells are then infected with an inoculum of encephalomyocarditis virus. The infected cells are incubated for an additional 24 hours at 37° C. before quantifying for viral cytopathic effect. The viral cytopathic effect is quantified by staining followed by visual scoring of the plates. Results are expressed as alpha reference units/mL based on the value obtained for NIH Human Leukocyte IFN standard.

TNF = experiment: Cytokine Induction in Human Cells: tumor necrosis factor (TNF) secreted by PBMCs, ELISA; assay type: cell-based; conditions: 18 to 24 hours
Source text: as §1, §2, §3, §4, §5
Tumor necrosis factor (ℑ) (TNF) concentration is determined using an ELISA kit available from Genzyme, Cambridge, Mass. The results are expressed as pg/mL.
Note: call rule not given here.

SMILES | IFN induction (IFN; Dose Concentration 0.1 μM) | IFN induction (IFN; Dose Concentration 1.0 μM) | IFN induction (IFN; Dose Concentration 10.0 μM) | IFN induction (IFN; Dose Concentration 100.0 μM) | TNF induction (TNF; Dose Concentration 0.1 μM) | TNF induction (TNF; Dose Concentration 1.0 μM) | TNF induction (TNF; Dose Concentration 10.0 μM) | TNF induction (TNF; Dose Concentration 100.0 μM)
CCCCc1nc2c(N)nc3cccnc3c2n1CCCCNC(=O)c1ccc(F)cc1 [Example 166] | − | + | + | − | − | + | + | −
CCCCc1nc2c(N)nc3cccnc3c2n1CCCCNC(=O)CCCCn1cnc2c1c(=O)n(C)c(=O)n2C [Example 105, N^1-[4-(4-Amino-2-butyl-1H-imidazo[4,5-c][1,5]naphthyridin-1-yl)butyl]-5-(1,3-dimethyl-2,6-oxo-2,3,6,7-tetrahydro-1H-purinyl)pentamide] | + | + | + | + | − | − | + | +
CCCCc1nc2c(N)nc3cccnc3c2n1CCNC(=O)c1ccc(C(=O)OC)cc1 [Example 150] | − | − | + | + | − | − | + | +
CCCCc1nc2c(N)nc3cccnc3c2n1CCNC(=O)CCC1CCCC1 [Example 138] |  | + | + | + |  | + | + | +
CCCCc1nc2c(N)nc3cccnc3c2n1CCNC(=O)CCn1cc([N+](=O)[O-])nc1C [Example 209] | − | − | + | + | − | − | + | +
CCCCc1nc2c(N)nc3cccnc3c2n1CCCCNC(=O)c1ccccc1 [Example 52, N-[4-(4-Amino-2-butyl-1H-imidazo[4,5-c][1,5]naphthyridin-1-yl)butyl]benzamide] |  | + | + | − |  | + | + | −
CCCCc1nc2c(N)nc3cccnc3c2n1CCCCNC(=O)c1ccccc1OC [Example 188] | + | + | + | − | − | + | + | −
CCCCc1nc2c(N)nc3cccnc3c2n1CCCCNC(=O)c1c(F)c(F)c(F)c(F)c1F [Example 163] | + | + | + | + | − | + | + | −
CCCCc1nc2c(N)nc3cccnc3c2n1CCNC(=O)C(N)CC(C)C (stereo not drawn) [Example 102, N^1-[2-(4-Amino-2-butyl-1H-imidazo[4,5-c][1,5]naphthyridin-1-yl)ethyl]-2-amino-4-methylpentanamide] | + | + | + | + | + | + | + | +
CCCCc1nc2c(N)nc3cccnc3c2n1CCCCNC(=O)C1CCCC1 [Example 174] | + | + | + | + | + | + | + | −
CCCCc1nc2c(N)nc3cccnc3c2n1CCCCNC(=O)C1(c2ccc(Cl)cc2)CCCC1 [Example 155] | − | + | + | + | − | − | + | +
